Test results: patent US20100285145A1, “GPR 119 MODULATORS” (PFIZER INC, priority 2009, published 2010)
Values joined by “and” are separate entries in the source; they are usually repeats but may differ in a detail not shown here. Equal entries are not always repeated.

How the values were obtained:
human GPR119 = target: T1, human GPR119 (Homo sapiens, UniProt Q8TDV5); assay: β-Lactamase reporter functional assay (hGPR119 HEK293-CRE beta-lactamase cells); type: cell-based; parameters: host or cells: HEK293-CRE beta-lactamase; Emax: dose or concentration left out as unconfirmed; details: for EC50: hGPR119 HEK293-CRE beta-lactamase cells, 16 h incubation, each line a separate determination, read-out: Human B-lactamase Functional EC50; for Intrinsic Activity (Human B-lactamase) / Emax: percent of maximal activity relative to standard GPR119 agonist at 10 micromolar; for Emax: read-out: Intrinsic Activity (Human B-lactamase)
T1 sequence (Q8TDV5 1-335): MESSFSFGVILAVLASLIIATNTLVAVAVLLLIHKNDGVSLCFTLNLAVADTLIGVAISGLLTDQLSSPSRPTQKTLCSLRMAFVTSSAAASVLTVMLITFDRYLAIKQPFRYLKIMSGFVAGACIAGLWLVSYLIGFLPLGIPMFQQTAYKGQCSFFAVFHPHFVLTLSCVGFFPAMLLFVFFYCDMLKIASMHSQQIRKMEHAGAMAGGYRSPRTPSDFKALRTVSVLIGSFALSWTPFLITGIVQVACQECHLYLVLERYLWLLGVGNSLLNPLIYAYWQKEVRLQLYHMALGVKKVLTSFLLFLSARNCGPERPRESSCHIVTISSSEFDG
Description: The assay for GPR119 agonists utilizes a cell-based (hGPR119 HEK293-CRE beta-lactamase) reporter construct where agonist activation of human GPR119 is coupled to beta-lactamase production via a cyclic AMP response element (CRE). GPR119 activity is then measured utilizing a FRET-enabled beta-lactamase substrate, CCF4-AM (Live Blazer FRET-B/G Loading kit, Invitrogen cat #K1027). Specifically, hGPR119-HEK-CRE-beta-lactamase cells (Invitrogen 2.5×10^7/mL) were removed from liquid nitrogen storage, and diluted in plating medium (Dulbecco's modified Eagle medium high glucose (DMEM; Gibco Cat # 11995-065), 10% heat inactivated fetal bovine serum (HIFBS; Sigma Cat # F4135), 1×MEM Nonessential amino acids (Gibco Cat # 15630-080), 25 mM HEPES pH 7.0 (Gibco Cat # 15630-080), 200 nM potassium clavulanate (Sigma Cat # P3494). The cell concentration was adjusted using cell plating medium and 50 microL of this cell suspension ([…]) was added into each well of a black, clear bottom, poly-d-lysine coated 384-well plate (Greiner Bio-One cat# 781946) and incubated at 37 degrees Celsius in a humidified environment containing 5% carbon dioxide. After 4 hours the plating medium was removed and replaced with 40 microL of assay medium (Assay medium is plating medium without potassium clavulanate and HIFBS). Varying concentrations of each compound to be tested was then added in a volume of 10 microL (final DMSO ≦0.5%) and the cells were incubated for 16 hours at 37 degrees Celsius in a humidified environment containing 5% carbon dioxide. Plates were removed from the incubator and allowed to equilibrate to room temperature for approximately 15 minutes. 10 microL of 6×CCF4/AM working dye solution (prepared according to instructions in the Live Blazer FRET-B/G Loading kit, Invitrogen cat #K1027) was added per well and incubated at room temperature for 2 hours in the dark. Fluorescence was measured on an EnVision fluorimetric plate reader, excitation 405 nm, emission 460 nm/535 nm. EC50 determinations were made from agonist-response curves analyzed with a curve fitting program using a 4-parameter logistic dose-response equation.

male Wistar rats = assay: Intraperitoneal glucose tolerance test (IPGTT); type: in vivo; details: rat
Source text: All in vivo protocols were approved by the Pfizer's Animal Welfare Committee. Naive male Wistar rats (225-250 g body weight on receipt) were obtained from Harlan Laboratories (Indianapolis, Ind.), were pair housed in hanging plastic caging on Sani-chips sawdust bedding, and fed ad libitum on Purina 5001 chow. The rats were housed under a controlled light cycle (light from 6 am to 6 pm) at controlled temperature and humidity conditions. Rats were acclimated to the facility for at least 1 week prior to study.
Rats were assigned (n=8/group) to vehicle or one of three dose groups ([…]) according to body weight on day −0.1 to ensure that each group had equal group mean body weight values. The rats were fasted overnight in clean cages overnight (˜15 hours) prior to the intra-peritoneal glucose tolerance test. Body weights were recorded on the morning of the study (post fasting) for dose volume calculation. Blood samples were collected from all rats prior to dosing with vehicle (0.5% methylcellulose) or test compound via oral gavage (5 mL/kg). Sixty minutes later rats were bled and immediately dose with an IP dose of glucose (2 g/kg). The rats were re-bled at 15, 30, 60 and 120 minutes post-glucose load. Blood samples (˜250 μL/time point) were collected into EDTA tubes with aprotinin/DPPIVi (0.6 TIU/20 μL per mL whole blood), for the determination of plasma glucose, insulin, and total amide GLP-1 concentrations. Blood tubes were inverted several times immediately following collection and placed on ice, then spun at 14,000 rpm in a refrigerated centrifuge for 5 minutes. Plasma samples were analyzed for glucose levels using a Roche 912 clinical chemistry analyzer and plasma insulin concentrations were determined using the Alpco Ultra-Sensitive Insulin Rat Elisa.
The results are presented as mean+/−SEM (standard error of the mean) unless otherwise stated. Statistical evaluation of the data is carried out using one-way analysis of variance (ANOVA) with appropriate post-hoc analysis between vehicle and treatment group. Differences compared to vehicle with a P<0.05 were considered statistically significant using Dunnett's T-test.
IPGTT studies were performed with Example 3, either prepared as described above (dosed as a suspension in 0.5% methylcellulose) or prepared as an amorphous dispersion (25% active) with hydroxyproylmethylcellulose-acetate succinate (dosed as a suspension in 0.5% methylcellulose/0.1% polysorbate 80). […] Statistical significance is based on a comparison to the vehicle group.

[1] = 20 mg/kg SDD (amorphous dispersion 25% active with HPMC-acetate succinate)

| EC50 (human GPR119) | Intrinsic Activity (Human B-lactamase) (human GPR119) | Emax (human GPR119) [%] | Compound | further results |
| --- | --- | --- | --- | --- |
| 0.0759 µM and 0.0723 µM | 109% | 107 | CC(C)OC(=O)N1C[C@H]2COC[C@@H](C1)[C@H]2Oc1cc(N2CCc3cc(S(C)(=O)=O)ccc32)ncn1 [Example 1, Isopropyl 9-anti-({6-[5-(methylsulfonyl)-2,3-dihydro-1H-indol-1-yl]pyrimidin-4-yl}oxy)-3-oxa-7-azabicyclo[3.3.1]nonane-7-carboxylate] |  |
| 0.0078 µM and 0.00645 µM | 103% | 99.9 | CC(C)OC(=O)N1CCC(Oc2ncnc(N3CCc4cc(S(C)(=O)=O)ccc43)c2C#N)CC1 [Example 6, Isopropyl 4-({5-cyano-6-[5-(methylsulfonyl)-2,3-dihydro-1H-indol-1-yl]pyrimidin-4-yl}oxy)piperidine-1-carboxylate] |  |
| 0.0072 µM and 0.00409 µM and 0.00282 µM | 113% and 112% | 107 | CC(C)(C)OC(=O)N1CCC(Oc2cc(N3CCc4cc(S(C)(=O)=O)ccc43)ncn2)C(F)C1 (racemic) [Example 15, tert-Butyl 3-fluoro-4-({6-[5-(methylsulfonyl)-2,3-dihydro-1H-indol-1-yl]pyrimidin-4-yl}oxy)piperidine-1-carboxylate] |  |
| 0.0435 µM and 0.0574 µM | 99.2% | 100 | Cc1c(OC2CCN(C(=O)OC(C)C)CC2)ncnc1N1CCc2cc(S(C)(=O)=O)ccc21 [Example 8, Isopropyl 4-({5-methyl-6-[5-(methylsulfonyl)-2,3-dihydro-1H-indol-1-yl]pyrimidin-4-yl}oxy)piperidine-1-carboxylate] |  |
| 0.236 µM and 0.203 µM | 97.8% | 92.6 | Cc1c(OC2CCN(C(=O)OC(C)C)CC2)ncnc1N1CCc2ncccc21 [Example 13, Isopropyl 4-{[6-(2,3-dihydro-1H-pyrrolo[3,2-b]pyridin-1-yl)-5-methylpyrimidin-4-yl]oxy}-piperidine-1-carboxylate] |  |
|  |  | 97.9 | Cc1c(O[C@@H]2[C@@H]3COC[C@H]2CN(C(=O)OC(C)C)C3)ncnc1N1CCc2cc(S(C)(=O)=O)ccc21 [Example 23, Isopropyl (9-syn)-9-({5-methyl-6-[5-(methylsulfonyl)-2,3-dihydro-1H-indol-1-yl]pyrimidin-4-yl}oxy)-3-oxa-7-azabicyclo[3.3.1]nonane-7-carboxylate] |  |
| 0.0407 µM |  | 103 | CC(C)OC(=O)N1CCC(Oc2cc(N3CCc4cc(S(=O)(=O)CCO)ccc43)ncn2)CC1 [Example 11, Isopropyl 4-[(6-{5-[(2-hydroxyethyl)sulfonyl]-2,3-dihydro-1H-indol-1-yl}pyrimidin-4-yl)oxy]piperidine-1-carboxylate] |  |
| 0.0467 µM and 0.0372 µM | 85.8% | 90 | CC(C)OC(=O)N1CCC(Oc2cc(N3CCc4cc(C#N)ccc43)ncn2)CC1 [Example 10, Isopropyl 4-{[6-(5-cyano-2,3-dihydro-1H-indol-1-yl)pyrimidin-4-yl]oxy}piperidine-1-carboxylate] |  |
| 2.1 µM and 2.16 µM | 121% | 110 | CC(C)OC(=O)N1CCC(Oc2cc(N3CCc4ncccc43)ncn2)CC1 [Example 12, Isopropyl 4-{[6-(2,3-dihydro-1H-pyrrolo[3,2-b]pyridin-1-yl)pyrimidin-4-yl]oxy}piperidine-1-carboxylate] |  |
| 0.0126 µM and 0.0297 µM and 0.0138 µM and 0.0123 µM | 102% and 81.8% and 93.4% and 107% |  | CC(C)OC(=O)N1CCC(Oc2cc(N3CCc4cc(S(C)(=O)=O)ccc43)ncn2)CC1 [Example 3, Isopropyl 4-({6-[5-(methylsulfonyl)-2,3-dihydro-1H-indol-1-yl]pyrimidin-4-yl}oxy)piperidine-1-carboxylate] | Glucose 0-120 min AUC (percent vehicle response) (male Wistar rats; [1]): ++89 percent vehicle response; Insulin AUC (0-60 min) (percent vehicle response) (male Wistar rats; [1]): 118 percent vehicle response; Glucose 0-120 min AUC (percent vehicle response) (male Wistar rats; 20 mg/kg in 0.5% methylcellulose, IP glucose administered 30 minutes post dose): ++85 percent vehicle response |
|  |  |  | Cc1c(O[C@H]2CCN(C(=O)OC3(C)CC3)C[C@H]2F)ncnc1N1CCc2ncccc21 [Example 17, 1-Methylcyclopropyl (3R,4S)-4-{[6-(2,3-dihydro-1H-pyrrolo[3,2-b]pyridin-1-yl)-5-methylpyrimidin-4-yl]oxy}-3-fluoropiperidine-1-carboxylate] | Insulin 0-60 min AUC (percent vehicle response) (male Wistar rats; 1 mg/kg oral): 126 percent vehicle response; Total Amide GLP-1 0-120 min AUC (percent vehicle response) (male Wistar rats; 1 mg/kg oral): 235 percent vehicle response; Glucose 0-120 min AUC (percent vehicle response) (male Wistar rats; 1 mg/kg oral, 60 min before IP glucose 2 g/kg): 88 percent vehicle response; Insulin 0-60 min AUC (percent vehicle response) (male Wistar rats; 10 mg/kg oral): ++162 percent vehicle response; Total Amide GLP-1 0-120 min AUC (percent vehicle response) (male Wistar rats; 10 mg/kg oral): 237 percent vehicle response; Glucose 0-120 min AUC (percent vehicle response) (male Wistar rats; 10 mg/kg oral, 60 min before IP glucose 2 g/kg): ++69 percent vehicle response |
| 0.0373 µM and 0.0328 µM | 101% | 100 | CC(C)OC(=O)N1CCC(Oc2cc(N3CCc4cc(C(=O)N(C)C)ccc43)ncn2)CC1 [Example 9, 4-[6-(5-Dimethylcarbamoyl-2,3-dihydroindol-1-yl)-pyrimidin-4-yloxy]-piperidine-1-carboxylic acid isopropyl ester] |  |
